The subject of one data set is Mcl-1 null MEF cells. Kind of data set: Assay of Mcl-1 null MEF cells (rescue from ABT-737-induced killing, CellTitre-Blue viability). In kind it is cell-based, mouse. The settings on record: Mcl-1^(-/-) MEFs. How it is done: In summary, cells are split on day one in order to have them at a confluency of 60-80% on day two. On day two, the cells are seeded out into assay plates at a density that will ensure they are not confluent by day four of the assay. The assay plates are incubated at room temperature for 20-60 minutes before being transferred to 37° C. so that edge effects are minimized. For the same reason, assay plates are never stacked on top of each other in the incubator. On day three the cells are treated first with either Q-VD or with WEHI library compound. The cells are incubated for a 2 hour period in the presence of the library compounds and are then treated with ABT-737. […] After four hours the level of resorufin is measured.
The protocol for day one was repeated up to the point where the cells were pelleted and the supernatant aspirated off. […] The cells were vortexed and then counted using a haemocytometer. The dilution necessary to achieve a density of 2×10^4 cells ml^−1 (1000 cells per well per 50 μl media) in the required volume was calculated and the dilution performed in 1% FCS FMA. […]
CellTitre-Blue™ was warmed to 37° C. and 10 μl was then added to each well of the assay plates using the Multidrop. The plates were returned to 37° C. for 4 hours before being loaded into the EnVision plate reader. […]

In a further data set the test system is reticulated platelets. Description: Reticulated platelet labeling (thiazole orange) after ABT-737. The format is in vivo, mouse. The settings on record: thiazole orange staining after a single dose. The procedure:
Animals were bled 2-24 h afterwards and platelet counts determined. […] (B) Platelet recovery after a single dose of ABT-737. Platelet counts (blue symbols; left axis) were determined 2-96 h after a single dose of ABT-737 (red arrow). […] Orange symbols represent serum TPO levels (right axis). (C) Cyclical acute thrombocytopaenia triggered by ABT-737. Platelet counts were determined before and 8 h after a single dose of ABT-737 (red arrows) given at weekly intervals. […] During recovery, baseline counts drifted upwards. (D) ABT-737 acts selectively on aged platelets. […] (E) Synchronizing platelets. […] During recovery, the newly synthesized younger platelets are larger as indicated by the increased mean platelet volume (blue symbols; right axis). (F) Young platelets are resistant to ABT-737. Wild type C57BL/6 mice were treated with APS, and then injected with ABT-737 (red arrows) either 2 or 7 days afterwards. Absolute platelet counts and the % of reticulated platelets were measured. The top panels show representative flow cytometric profiles following thiazole orange staining before or after ABT-737 injections. The bottom panels show platelet counts prior to or 2 h post ABT-737 injection. Data in (B), (C), (E) and (F) represent means±SD of 3-6 mice at each time point.
Staining of reticulated platelets was performed using thiazole orange. […]

A further data set has as its system megakaryocytes. The settings on record: mouse, in vivo. How it is done: The hematocrit, platelet and white cell count, and differential were determined by using either manual or automated (Advia 120) counting techniques. In most experiments, with the exception of data shown in FIGS. 1A and 6E, the data was collected from male mice. Clonal cultures of 2.5×10^4 adult bone marrow cells or 5×10^4 spleen cells in 1 mL of 0.3% agar in DMEM supplemented with newborn calf serum (20%) were stimulated with a mixture of 100 ng/mL murine stem cell factor, 10 ng/mL murine IL-3, 4 units/mL human EPO and incubated for 7 days at 37° C. in a fully humidified atmosphere of 10% CO2 in air. Agar cultures were fixed, sequentially stained for acetylcholinesterase, Luxol fast blue and hematoxylin; the cellular composition of each colony determined at ×100-400 magnification. Megakaryocyte counts were performed by manual counting from sections of sternum and spleen after staining with hematoxylin/eosin. A minimum of 10 high-power fields (×200) were scored.

Data set [1] deals with tumor cell lines derived from small cell lung cancers or lymphomas. The settings on record: small cell lung cancer or lymphoma derived lines; Oltersdorf et al., 2005; cited from earlier work.

Entries after “also recorded” stand apart in the source; their conditions may differ.

On to `CN(C)CC[C@H](CSc1ccccc1)Nc1ccc(S(=O)(=O)NC(=O)c2ccc(N3CCN(Cc4ccccc4-c4ccc(Cl)cc4)CC3)cc2)cc1[N+](=O)[O-]` [ABT-737], for which the “induction of apoptosis in Mcl-1^(-/-) cells” value in the data set on Mcl-1 null MEF cells is “Apoptosis is induced”. Further, in the data set on reticulated platelets, the “proportion of reticulated platelets post ABT-737” value is “transient increase; also recorded: increased proportion”. Further, the “megakaryocytopoiesis in ABT-737 treated mice” value in the data set on megakaryocytes is given as “normal, or probably even elevated”. Moreover, the “efficacy against tumor cell lines” value in data set [1] is recorded as “single agent efficacy”.
